{"source": "ChEMBL document CHEMBL1132903", "about": "(Bioorg Med Chem Lett, 2000)", "key": {"[1]": {"target": "Pancreatic elastase (Sus scrofa) (UniProt P08419+P00772)", "sequence (P00772 whole entry, looked up, one chain of several)": "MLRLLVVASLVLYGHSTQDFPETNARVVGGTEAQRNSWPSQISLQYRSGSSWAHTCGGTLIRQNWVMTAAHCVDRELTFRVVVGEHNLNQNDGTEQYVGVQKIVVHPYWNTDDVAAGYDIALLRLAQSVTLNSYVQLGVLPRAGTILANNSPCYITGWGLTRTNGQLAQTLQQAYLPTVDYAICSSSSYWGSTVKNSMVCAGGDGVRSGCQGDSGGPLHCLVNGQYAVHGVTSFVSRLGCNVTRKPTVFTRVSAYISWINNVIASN", "test": "Inhibition constant for uncompetitive inhibition of Suc-AAPA and Pancreatic elastase; call rule not given here", "type": "protein assay"}, "[2]": {"target": "T1, Chymotrypsinogen A (Bos taurus, UniProt P00766)", "test": "Competitive inhibition constant against Chymotrypsinogen using the reporter substrate Suc-AAPA-pNa"}, "[3]": {"target": "T2, Serine protease 1 (Homo sapiens, UniProt P07477)", "T2 sequence (P07477 whole entry)": "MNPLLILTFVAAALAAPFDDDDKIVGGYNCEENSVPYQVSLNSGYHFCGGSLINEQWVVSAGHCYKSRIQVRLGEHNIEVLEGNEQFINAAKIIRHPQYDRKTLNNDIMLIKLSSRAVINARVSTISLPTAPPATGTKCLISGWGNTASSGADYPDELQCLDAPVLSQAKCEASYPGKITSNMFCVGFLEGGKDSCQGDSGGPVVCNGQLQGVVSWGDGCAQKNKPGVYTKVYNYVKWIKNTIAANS"}, "[4]": {"target": "T3, Chymotrypsin-like elastase family member 2A (Sus scrofa, UniProt P08419)", "T3 sequence (P08419 whole entry)": "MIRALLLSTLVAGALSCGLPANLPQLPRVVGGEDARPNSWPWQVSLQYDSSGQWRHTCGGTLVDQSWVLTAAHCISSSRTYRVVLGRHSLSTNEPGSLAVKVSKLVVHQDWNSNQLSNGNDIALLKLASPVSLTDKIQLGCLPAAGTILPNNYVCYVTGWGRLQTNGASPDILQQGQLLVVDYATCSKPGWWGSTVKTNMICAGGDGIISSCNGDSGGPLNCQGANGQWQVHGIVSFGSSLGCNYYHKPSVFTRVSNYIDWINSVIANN", "test": "Peptide was tested for inhibition constant for uncompetitive inhibition using Suc-AAPA and Pancreatic elastase"}, "[5]": {"target": "T4, Neutrophil elastase (Homo sapiens, UniProt P08246)", "T4 sequence (P08246 whole entry)": "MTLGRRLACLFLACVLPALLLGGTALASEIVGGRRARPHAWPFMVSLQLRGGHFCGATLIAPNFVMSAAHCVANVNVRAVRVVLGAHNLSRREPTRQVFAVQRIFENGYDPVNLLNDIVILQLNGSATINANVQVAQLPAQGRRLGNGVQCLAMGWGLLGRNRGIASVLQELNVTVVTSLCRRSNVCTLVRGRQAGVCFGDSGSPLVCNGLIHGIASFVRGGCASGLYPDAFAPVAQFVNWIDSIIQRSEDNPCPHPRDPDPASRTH", "test": "Competitive inhibition constant against Human neutrophil elastase using the reporter substrate MeO-AAPV-pNa"}, "[6]": {"target": "T1, Chymotrypsinogen A", "test": "Competitive inhibition constant against Chymotrypsinogen using the reporter substrate Suc-AAPA-pNa; No inhibition"}, "[7]": {"target": "T4, Neutrophil elastase", "test": "Competitive inhibition constant against Human neutrophil elastase using the reporter substrate MeO-AAPV-pNa; NI means no inhibition"}, "[8]": {"target": "T5, Chymotrypsin-like elastase family member 2A (Sus scrofa) (UniProt P08419)", "T5 sequence (whole entry)": "T3 sequence (P08419 whole entry)", "description": "Peptide was tested for inhibition constant for competitive inhibition using Suc-AAPA-pNa and Pancreatic elastase"}, "[9]": {"target": "T2, Serine protease 1", "test": "Competitive inhibition constant against trypsin using the reporter substrate Ac-R-pNa"}}, "note": "Where a SMILES comes first, the peptide text is derived from it.", "data": [{"compound": "CSCC[C@H](N)C(=O)N[C@@H](Cc1ccccc1)C(=O)N[C@@H](CC(C)C)C(=O)N[C@@H](C)C(=O)O", "note": "(H-MFLA-OH)", "values": [{"measurement": "Ki'", "setting": "[1]", "value": 890, "unit": "µM"}]}, {"compound": "H-MFLEAIPMSIPPE-OH", "values": [{"measurement": "Ki", "setting": "[2]", "value": 240, "unit": "µM"}]}, {"compound": "CC[C@H](C)[C@H](NC(=O)[C@H](C)NC(=O)[C@H](CCC(=O)O)NC(=O)[C@H](CC(C)C)NC(=O)[C@H](Cc1ccccc1)NC(=O)[C@@H](N)CCSC)C(=O)N1CCC[C@H]1C(=O)N[C@@H](CCSC)C(=O)O", "values": [{"measurement": "Ki", "setting": "[3]", "value": "Not Active"}, {"measurement": "Ki", "setting": "[4]", "value": "No inhibition"}, {"measurement": "Ki", "setting": "[2]", "value": 2300, "unit": "µM"}]}, {"compound": "CC[C@@H](C)[C@H](NC(=O)[C@H](CO)NC(=O)[C@H](CCSC)NC(=O)[C@@H]1CCCN1C(=O)[C@H](NC(=O)[C@@H](C)NC(=O)[C@@H](CCC(=O)O)NC(=O)[C@@H](CC(C)C)NC(=O)[C@@H](Cc1ccccc1)NC(=O)[C@H](N)CCSC)[C@H](C)CC)C(=O)O", "values": [{"measurement": "Ki", "setting": "[5]", "value": 27, "unit": "µM"}, {"measurement": "Ki'", "setting": "[1]", "value": 340, "unit": "µM"}]}, {"compound": "CC(C)C[C@H](NC(=O)[C@@H](N)Cc1ccccc1)C(=O)N[C@@H](CCC(=O)O)C(=O)O", "note": "(H-Phe-Leu-Glu-OH)", "values": [{"measurement": "Ki'", "setting": "[1]", "value": 1400, "unit": "µM"}]}, {"compound": "CC[C@H](C)[C@H](NC(=O)[C@H](C)NC(=O)[C@H](CCC(=O)O)NC(=O)[C@H](CC(C)C)NC(=O)[C@@H](N)Cc1ccccc1)C(=O)N1CCC[C@@H]1C(=O)N[C@H](CCSC)C(=O)O", "values": [{"measurement": "Ki'", "setting": "[1]", "value": 530, "unit": "µM"}]}, {"compound": "CSCC[C@@H](N)C(=O)N[C@H](Cc1ccccc1)C(=O)N[C@H](CC(C)C)C(=O)N[C@H](CCC(=O)O)C(=O)O", "values": [{"measurement": "Ki", "setting": "[3]", "value": "Not Active"}, {"measurement": "Ki'", "setting": "[1]", "value": 370, "unit": "µM"}, {"measurement": "Ki", "setting": "[6]", "value": "Not Active"}, {"measurement": "Ki", "setting": "[7]", "value": "Not Active"}]}, {"compound": "CC[C@@H](C)[C@@H](NC(=O)[C@@H](C)NC(=O)[C@@H](CCC(=O)O)NC(=O)[C@@H](CC(C)C)NC(=O)[C@@H](Cc1ccccc1)NC(=O)[C@H](N)CCSC)C(=O)N1CCC[C@H]1C(=O)N[C@@H](CCSC)C(=O)O", "values": [{"measurement": "Ki", "setting": "[5]", "value": 270, "unit": "µM"}, {"measurement": "Ki'", "setting": "[1]", "value": 440, "unit": "µM"}, {"measurement": "Ki'", "setting": "[8]", "value": "No inhibition"}]}, {"compound": "CC[C@@H](C)[C@@H](NC(=O)[C@@H](C)NC(=O)[C@@H](CCC(=O)O)NC(=O)[C@@H](CC(C)C)NC(=O)[C@@H](Cc1ccccc1)NC(=O)[C@H](N)CCSC)C(=O)N1CCC[C@H]1C(=O)N[C@H](CCCCN)C(=O)O", "values": [{"measurement": "Ki'", "setting": "[1]", "value": 640, "unit": "µM"}, {"measurement": "Ki", "setting": "[7]", "value": "Not Active"}]}, {"compound": "CC[C@@H](C)[C@@H](NC(=O)[C@@H](C)NC(=O)[C@@H](CCC(=O)O)NC(=O)[C@@H](CC(C)C)NC(=O)[C@@H](Cc1ccccc1)NC(=O)[C@H](N)CCSC)C(=O)N1CCC[C@H]1C(=O)N[C@@H](CCSC)C(=O)N[C@@H](CO)C(=O)O", "values": [{"measurement": "Ki", "setting": "[5]", "value": 190, "unit": "µM"}, {"measurement": "Ki'", "setting": "[1]", "value": 1200, "unit": "µM"}]}, {"compound": "CC[C@@H](C)[C@@H](NC(=O)[C@@H](CC)NC(=O)[C@@H](CCC(=O)O)NC(=O)[C@@H](CC(C)C)NC(=O)[C@@H](Cc1ccccc1)NC(=O)[C@H](N)CCSC)C(=O)N1CCC[C@H]1C(=O)O", "values": [{"measurement": "Ki'", "setting": "[1]", "value": 220, "unit": "µM"}]}, {"compound": "CC[C@@H](C)[C@@H](NC(=O)[C@@H](C)NC(=O)[C@@H](CCC(=O)O)NC(=O)[C@@H](CC(C)C)NC(C)=O)C(=O)N1CCC[C@H]1C(=O)N[C@@H](CCSC)C(=O)O", "values": [{"measurement": "Ki'", "setting": "[1]", "value": 890, "unit": "µM"}]}, {"compound": "CC[C@H](C)[C@H](NC(=O)[C@H](C)NC(=O)[C@H](CCC(=O)O)NC(=O)[C@H](CC(C)C)NC(=O)[C@H](Cc1ccccc1)NC(=O)[C@@H](N)CCSC)C(=O)N1CCC[C@H]1C(=O)N[C@@H](CCSC)C(=O)N[C@@H](CO)C(=O)O", "values": [{"measurement": "Ki", "setting": "[3]", "value": "Not Active"}, {"measurement": "Ki", "setting": "[2]", "value": 3100, "unit": "µM"}]}, {"compound": "CC[C@H](C)[C@H](NC(=O)[C@H](CO)NC(=O)[C@H](CCSC)NC(=O)[C@@H]1CCCN1C(=O)[C@@H](NC(=O)[C@H](C)NC(=O)[C@H](CCC(=O)O)NC(=O)[C@H](CC(C)C)NC(=O)[C@H](Cc1ccccc1)NC(=O)[C@@H](N)CCSC)[C@@H](C)CC)C(=O)O", "values": [{"measurement": "Ki", "setting": "[3]", "value": "Not Active"}, {"measurement": "Ki", "setting": "[2]", "value": 160, "unit": "µM"}]}, {"compound": "CC[C@H](C)[C@H](NC(=O)[C@H](C)NC(=O)[C@H](CCC(=O)O)NC(=O)[C@H](CC(C)C)NC(=O)[C@H](Cc1ccccc1)NC(=O)[C@@H](N)CCSC)C(=O)N1CCC[C@H]1C(=O)N[C@@H](CCCCN)C(=O)O", "values": [{"measurement": "Ki", "setting": "[9]", "value": 540, "unit": "µM"}, {"measurement": "Ki", "setting": "[6]", "value": "Not Active"}]}]}
